According to patent publication US9492471B2, “Methods of treating a disease or disorder associated with Bruton'S Tyrosine Kinase” (Celgene Avilomics Research, Inc., priority 2013, dated 2016):
Where two headings read alike, the source gives them in different places.

Legend:
Experiment in all cases: HotSpot kinase profiling
Format in all cases: biochemical
[1] = target: T1, STK33 (Homo sapiens, UniProt Q9BYT3)
T1 construct: purchased Reaction Biology Corp
How it was run: (§1)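 Radiometric kinase assay with P81 filter capture; each kinase was added to fresh substrate plus cofactors in reaction buffer and incubated 2 h at room temperature. Unreacted phosphate was washed off with 0.1% phosphoric acid before detection; percent inhibition is relative to DMSO control, averaged over replicates.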

[2] = target: T2, PRKX (Homo sapiens, UniProt P51817)
T2 construct: purchased Reaction Biology Corp
T2 sequence (P51817 1-358): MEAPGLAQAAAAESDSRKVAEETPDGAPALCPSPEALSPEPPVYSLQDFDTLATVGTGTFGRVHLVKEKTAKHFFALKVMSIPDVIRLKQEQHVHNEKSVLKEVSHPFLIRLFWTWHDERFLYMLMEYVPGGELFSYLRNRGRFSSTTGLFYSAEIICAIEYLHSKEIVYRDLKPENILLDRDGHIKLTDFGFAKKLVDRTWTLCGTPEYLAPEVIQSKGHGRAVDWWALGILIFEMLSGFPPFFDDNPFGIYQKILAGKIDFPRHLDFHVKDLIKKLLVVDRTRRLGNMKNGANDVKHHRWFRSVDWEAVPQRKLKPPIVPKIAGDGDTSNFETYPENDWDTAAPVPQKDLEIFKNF
How it was run: as §1

[3] = target: T3, P38b/MAPK11 (Homo sapiens, UniProt Q15759)
T3 construct: purchased Reaction Biology Corp
T3 sequence (Q15759 whole entry): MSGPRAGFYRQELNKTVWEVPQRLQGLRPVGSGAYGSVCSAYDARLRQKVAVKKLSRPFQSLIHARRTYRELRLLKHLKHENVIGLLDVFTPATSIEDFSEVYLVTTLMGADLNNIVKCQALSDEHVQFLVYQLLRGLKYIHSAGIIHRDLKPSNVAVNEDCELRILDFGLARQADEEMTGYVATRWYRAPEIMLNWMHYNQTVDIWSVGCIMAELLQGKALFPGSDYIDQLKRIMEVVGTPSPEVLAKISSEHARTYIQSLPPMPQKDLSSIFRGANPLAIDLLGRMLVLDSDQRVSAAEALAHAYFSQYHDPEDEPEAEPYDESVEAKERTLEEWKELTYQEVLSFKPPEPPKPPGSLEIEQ
How it was run: as §1

[4] = target: T4, FRK/PTK5 (Homo sapiens, UniProt P42685)
T4 construct: purchased Reaction Biology Corp
T4 sequence (P42685 whole entry): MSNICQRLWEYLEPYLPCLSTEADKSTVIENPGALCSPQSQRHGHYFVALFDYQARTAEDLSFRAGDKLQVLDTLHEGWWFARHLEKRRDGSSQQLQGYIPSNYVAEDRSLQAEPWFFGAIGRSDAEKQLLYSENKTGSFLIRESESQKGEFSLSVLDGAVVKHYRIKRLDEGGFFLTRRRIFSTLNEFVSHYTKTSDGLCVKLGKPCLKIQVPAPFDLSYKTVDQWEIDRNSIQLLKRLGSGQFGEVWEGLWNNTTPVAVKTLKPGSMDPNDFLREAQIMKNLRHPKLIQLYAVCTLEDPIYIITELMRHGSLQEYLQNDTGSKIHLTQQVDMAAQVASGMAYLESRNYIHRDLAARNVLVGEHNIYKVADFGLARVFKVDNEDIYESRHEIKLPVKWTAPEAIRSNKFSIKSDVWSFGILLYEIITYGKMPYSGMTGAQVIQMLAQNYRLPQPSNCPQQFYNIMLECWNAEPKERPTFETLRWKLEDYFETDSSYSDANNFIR
How it was run: as §1

[5] = target: T5, MLCK2/MYLK2 (Homo sapiens, UniProt Q9H1R3)
T5 construct: purchased Reaction Biology Corp
How it was run: as §1

[6] = target: T6, CK1g3 (Homo sapiens, UniProt Q9Y6M4)
T6 construct: purchased Reaction Biology Corp
T6 sequence (Q9Y6M4 whole entry): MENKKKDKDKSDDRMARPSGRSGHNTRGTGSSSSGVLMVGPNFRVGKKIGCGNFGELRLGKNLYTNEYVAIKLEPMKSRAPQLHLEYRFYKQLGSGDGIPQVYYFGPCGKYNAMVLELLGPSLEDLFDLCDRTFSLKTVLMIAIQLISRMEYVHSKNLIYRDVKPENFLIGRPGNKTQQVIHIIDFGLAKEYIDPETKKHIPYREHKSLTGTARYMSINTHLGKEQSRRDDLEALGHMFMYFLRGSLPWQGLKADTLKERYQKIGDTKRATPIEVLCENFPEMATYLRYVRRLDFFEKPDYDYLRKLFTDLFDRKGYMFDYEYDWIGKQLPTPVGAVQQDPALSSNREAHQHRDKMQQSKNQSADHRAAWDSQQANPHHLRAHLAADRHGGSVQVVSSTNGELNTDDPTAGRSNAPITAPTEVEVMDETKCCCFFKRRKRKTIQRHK
How it was run: as §1

[7] = target: T7, PAK1 (Homo sapiens, UniProt Q13153)
T7 construct: purchased Reaction Biology Corp
T7 sequence (Q13153 whole entry): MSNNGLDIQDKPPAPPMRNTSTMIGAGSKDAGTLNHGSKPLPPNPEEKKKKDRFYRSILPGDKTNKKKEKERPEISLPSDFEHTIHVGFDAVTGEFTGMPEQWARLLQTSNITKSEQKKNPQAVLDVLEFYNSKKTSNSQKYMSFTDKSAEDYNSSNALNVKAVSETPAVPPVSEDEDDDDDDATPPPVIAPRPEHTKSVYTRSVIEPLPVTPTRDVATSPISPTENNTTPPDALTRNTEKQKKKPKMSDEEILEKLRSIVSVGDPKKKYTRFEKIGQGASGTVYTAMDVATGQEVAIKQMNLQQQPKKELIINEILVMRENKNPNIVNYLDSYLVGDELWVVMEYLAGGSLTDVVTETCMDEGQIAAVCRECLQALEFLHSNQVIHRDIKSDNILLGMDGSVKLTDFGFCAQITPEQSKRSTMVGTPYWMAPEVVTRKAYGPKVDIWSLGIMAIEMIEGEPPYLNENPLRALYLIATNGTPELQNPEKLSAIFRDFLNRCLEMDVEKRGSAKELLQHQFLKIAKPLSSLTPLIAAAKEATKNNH
How it was run: as §1

[8] = target: T8, DCAMKL2 (Homo sapiens, UniProt Q8N568)
T8 construct: purchased Reaction Biology Corp
T8 sequence (Q8N568 1-766): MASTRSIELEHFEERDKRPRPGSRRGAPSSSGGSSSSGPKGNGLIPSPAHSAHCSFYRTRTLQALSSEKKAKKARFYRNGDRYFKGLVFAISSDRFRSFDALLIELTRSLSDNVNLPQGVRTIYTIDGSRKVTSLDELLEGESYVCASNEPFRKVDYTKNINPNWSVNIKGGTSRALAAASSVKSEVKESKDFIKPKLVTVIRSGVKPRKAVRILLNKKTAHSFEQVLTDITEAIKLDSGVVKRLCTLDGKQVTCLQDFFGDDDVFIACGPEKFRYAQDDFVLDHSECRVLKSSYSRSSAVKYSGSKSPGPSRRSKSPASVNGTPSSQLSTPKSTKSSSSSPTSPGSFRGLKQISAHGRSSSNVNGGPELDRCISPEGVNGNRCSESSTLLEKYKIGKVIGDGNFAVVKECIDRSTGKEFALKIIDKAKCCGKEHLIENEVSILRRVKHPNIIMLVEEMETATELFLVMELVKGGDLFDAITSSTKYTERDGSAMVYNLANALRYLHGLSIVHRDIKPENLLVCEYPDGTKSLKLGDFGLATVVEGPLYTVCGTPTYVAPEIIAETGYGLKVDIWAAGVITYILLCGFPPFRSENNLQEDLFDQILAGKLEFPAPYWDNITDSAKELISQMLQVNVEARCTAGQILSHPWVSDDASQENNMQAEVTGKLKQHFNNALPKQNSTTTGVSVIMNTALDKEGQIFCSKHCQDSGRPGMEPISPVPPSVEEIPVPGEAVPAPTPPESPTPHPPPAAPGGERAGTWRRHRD
How it was run: as §1

[9] = target: T9, P70S6K/RPS6KB1 (Homo sapiens, UniProt P23443)
T9 construct: purchased Reaction Biology Corp
T9 sequence (P23443 whole entry): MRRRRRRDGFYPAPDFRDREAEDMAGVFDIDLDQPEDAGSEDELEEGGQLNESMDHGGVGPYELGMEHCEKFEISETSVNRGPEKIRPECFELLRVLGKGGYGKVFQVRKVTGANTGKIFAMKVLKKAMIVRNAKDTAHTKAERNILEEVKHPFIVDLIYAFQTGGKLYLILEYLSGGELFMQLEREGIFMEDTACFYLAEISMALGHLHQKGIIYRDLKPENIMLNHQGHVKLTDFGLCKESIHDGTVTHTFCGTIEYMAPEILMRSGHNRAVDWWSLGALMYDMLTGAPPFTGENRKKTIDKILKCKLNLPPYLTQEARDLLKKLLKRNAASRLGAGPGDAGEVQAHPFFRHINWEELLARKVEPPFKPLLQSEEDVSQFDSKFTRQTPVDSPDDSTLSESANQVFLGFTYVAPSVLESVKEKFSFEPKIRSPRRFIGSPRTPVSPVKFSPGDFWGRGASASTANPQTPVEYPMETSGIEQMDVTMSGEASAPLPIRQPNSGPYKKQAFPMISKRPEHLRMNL
How it was run: as §1

[10] = target: T10, SGK2 (Homo sapiens, UniProt Q9HBY8)
T10 construct: purchased Reaction Biology Corp
T10 sequence (Q9HBY8 1-367): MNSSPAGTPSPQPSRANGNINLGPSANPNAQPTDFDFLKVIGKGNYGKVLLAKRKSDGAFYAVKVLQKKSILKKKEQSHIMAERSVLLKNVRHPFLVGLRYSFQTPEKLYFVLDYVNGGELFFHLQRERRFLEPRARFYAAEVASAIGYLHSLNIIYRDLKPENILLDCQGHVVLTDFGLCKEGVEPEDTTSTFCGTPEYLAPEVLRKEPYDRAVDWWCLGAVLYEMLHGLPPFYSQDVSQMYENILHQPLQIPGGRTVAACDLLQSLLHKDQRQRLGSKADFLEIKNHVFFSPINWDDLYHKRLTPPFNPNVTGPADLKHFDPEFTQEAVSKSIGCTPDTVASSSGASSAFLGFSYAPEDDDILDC
How it was run: as §1

[11] = target: T11, PLK1 (Homo sapiens, UniProt P53350)
T11 construct: purchased Reaction Biology Corp
T11 sequence (P53350 whole entry): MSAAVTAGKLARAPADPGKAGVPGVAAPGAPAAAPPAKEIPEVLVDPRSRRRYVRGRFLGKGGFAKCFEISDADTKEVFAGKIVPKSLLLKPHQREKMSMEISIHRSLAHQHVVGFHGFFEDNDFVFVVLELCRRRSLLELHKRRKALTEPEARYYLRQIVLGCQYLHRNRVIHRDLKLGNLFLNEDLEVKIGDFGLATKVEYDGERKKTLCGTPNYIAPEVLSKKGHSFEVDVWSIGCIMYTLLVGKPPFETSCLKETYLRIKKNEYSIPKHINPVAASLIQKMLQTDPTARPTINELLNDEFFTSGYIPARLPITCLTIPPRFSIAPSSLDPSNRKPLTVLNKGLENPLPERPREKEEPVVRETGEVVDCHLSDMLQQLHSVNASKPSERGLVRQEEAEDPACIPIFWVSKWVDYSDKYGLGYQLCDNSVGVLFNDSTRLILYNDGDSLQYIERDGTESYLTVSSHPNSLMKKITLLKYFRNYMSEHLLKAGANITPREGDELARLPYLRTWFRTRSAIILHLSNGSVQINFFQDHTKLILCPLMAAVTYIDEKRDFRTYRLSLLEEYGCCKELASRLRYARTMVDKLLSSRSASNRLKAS
How it was run: as §1

[12] = read-out: % Enzyme Activity (relative to DMSO controls) Run 1
[13] = read-out: % Enzyme Activity (relative to DMSO controls) Run 2

T1 sequence (Q9BYT3 whole entry): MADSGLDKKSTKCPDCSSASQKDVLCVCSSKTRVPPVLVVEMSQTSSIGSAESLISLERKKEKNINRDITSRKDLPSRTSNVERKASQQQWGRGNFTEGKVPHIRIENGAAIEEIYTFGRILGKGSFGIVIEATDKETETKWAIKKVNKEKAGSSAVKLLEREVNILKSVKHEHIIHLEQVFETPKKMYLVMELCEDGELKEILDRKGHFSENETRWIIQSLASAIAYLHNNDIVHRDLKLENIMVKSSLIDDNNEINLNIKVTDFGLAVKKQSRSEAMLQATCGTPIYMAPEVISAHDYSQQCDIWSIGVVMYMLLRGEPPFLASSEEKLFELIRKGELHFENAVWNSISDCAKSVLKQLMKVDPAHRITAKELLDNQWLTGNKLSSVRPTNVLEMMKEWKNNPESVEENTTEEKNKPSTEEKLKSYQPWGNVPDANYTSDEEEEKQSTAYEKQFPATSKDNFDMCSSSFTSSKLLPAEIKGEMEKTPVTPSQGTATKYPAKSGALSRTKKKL

`C=CC(=O)Nc1cccc(Nc2nc(Nc3ccc(OCCOC)c(F)c3)ncc2F)c1` [Compound 2] was tested, and the inhibition at 3 µM [1] was 48.1%, the remaining activity at 3 µM [1, 12] was 51.2% and the remaining activity at 3 µM [1, 13] was 52.5%. It also gave an inhibition at 3 µM [2] of 1.8%, a remaining activity at 3 µM [2, 12] of 97.9% and a remaining activity at 3 µM [2, 13] of 98.5%. The inhibition at 3 µM [3] was -1.41%, the remaining activity at 3 µM [3, 12] was 102% and the remaining activity at 3 µM [3, 13] was 101%. The inhibition at 3 µM [4] was 0.75%, the remaining activity at 3 µM [4, 12] was 101% and the remaining activity at 3 µM [4, 13] was 98%. The inhibition at 3 µM [5] was 30.1%, the remaining activity at 3 µM [5, 12] was 71.6% and the remaining activity at 3 µM [5, 13] was 68.1%. The inhibition at 3 µM [6] was 15%, the remaining activity at 3 µM [6, 12] was 84.2% and the remaining activity at 3 µM [6, 13] was 85.8%. The inhibition at 3 µM [7] was 2.58%, the remaining activity at 3 µM [7, 12] was 96.3% and the remaining activity at 3 µM [7, 13] was 98.6%. It also gave an inhibition at 3 µM [8] of 0.18%, a remaining activity at 3 µM [8, 12] of 100% and a remaining activity at 3 µM [8, 13] of 99.5%. For the same compound, the inhibition at 3 µM [9] was 16.5%, the remaining activity at 3 µM [9, 12] was 85.9% and the remaining activity at 3 µM [9, 13] was 81%. For the same compound, the inhibition at 3 µM [10] was 26%, the remaining activity at 3 µM [10, 12] was 71.4% and the remaining activity at 3 µM [10, 13] was 76.6%. It also gave an inhibition at 3 µM [11] of 8.06%, a remaining activity at 3 µM [11, 12] of 91.1% and a remaining activity at 3 µM [11, 13] of 92.8%.
